According to the OligoGym collection:
HELM strings list units from the 5' end as sugar, base in round brackets, then linkage (d deoxyribose, r ribose, m 2'-O-methyl, p phosphodiester). Strings are as the collection lists them; they lack the last nucleoside at the 3' end of the tested compound. [moe] = 2'-O-(2-methoxyethyl) (MOE); [sp] = phosphorothioate linkage; [m5C] = 5-methylcytosine

target: PRNP; assay: mouse, dose not given; conditions: ASO

| Substance | 3 h FOB score |
| --- | --- |
| RNA1{[moe](T)[sp].[moe]([m5C])p.[moe](A)p.[moe](T)p.[moe](A)[sp].d(T)[sp].d(T)[sp].d(T)[sp].d([m5C])[sp].d(T)[sp].d(G)[sp].d(T)[sp].d([m5C])[sp].d(A)[sp].d(T)[sp].[moe]([m5C])p.[moe](T)p.[moe]([m5C])[sp].[moe]([m5C])}$$$$ (last 3' nucleoside missing) | 3 score 0-7 |
| RNA1{[moe](T)[sp].[moe]([m5C])p.[moe](A)p.[moe](T)p.[moe](A)p.d(A)[sp].d(T)[sp].d(T)[sp].d(T)[sp].d(T)[sp].d([m5C])[sp].d(T)[sp].d(T)[sp].d(A)[sp].[moe](G)p.[moe]([m5C])p.[moe](T)[sp].[moe](A)}$$$$ (last 3' nucleoside missing) | 0 score 0-7 |
| RNA1{[moe](T)[sp].[moe]([m5C])p.[moe](A)p.[moe](T)p.[moe]([m5C])[sp].d(A)[sp].d(T)[sp].d(T)[sp].d(T)[sp].d(T)[sp].d(G)[sp].d([m5C])[sp].d([m5C])[sp].d(A)[sp].d(T)[sp].[moe](T)p.[moe](T)p.[moe](A)[sp].[moe](T)}$$$$ (last 3' nucleoside missing) | 6 score 0-7 |
| RNA1{[moe](T)[sp].[moe]([m5C])p.[moe](A)p.[moe]([m5C])p.[moe](T)[sp].d(G)[sp].d(T)[sp].d(G)[sp].d(A)[sp].d(A)[sp].d(T)[sp].d(A)[sp].d(T)[sp].d(G)[sp].d(T)[sp].[moe]([m5C])p.[moe]([m5C])p.[moe](T)[sp].[moe]([m5C])}$$$$ (last 3' nucleoside missing) | 5 score 0-7 |
| RNA1{[moe](T)[sp].[moe]([m5C])p.[moe](G)p.[moe]([m5C])p.[moe]([m5C])[sp].d(A)[sp].d(T)[sp].d(A)[sp].d(A)[sp].d(T)[sp].d(G)[sp].d(A)[sp].d([m5C])[sp].d(T)[sp].d(G)[sp].[moe]([m5C])p.[moe](T)p.[moe]([m5C])[sp].[moe](T)}$$$$ (last 3' nucleoside missing) | 4.5 score 0-7 |
| RNA1{[moe](T)[sp].[moe]([m5C])p.[moe](T)p.[moe](A)p.[moe](T)[sp].d(G)[sp].d(T)[sp].d(T)[sp].d(T)[sp].d(T)[sp].d([m5C])[sp].d([m5C])[sp].d(A)[sp].[moe](G)p.[moe](T)p.[moe](G)[sp].[moe]([m5C])}$$$$ (last 3' nucleoside missing) | 0 score 0-7 |
| RNA1{[moe](T)[sp].[moe]([m5C])p.[moe](T)p.[moe](A)p.[moe](T)[sp].d(G)[sp].d(T)[sp].d(T)[sp].d(T)[sp].d(T)[sp].d([m5C])[sp].d([m5C])[sp].d(A)[sp].d(G)[sp].d(T)[sp].[moe](G)p.[moe]([m5C])p.[moe]([m5C])[sp].[moe]([m5C])}$$$$ (last 3' nucleoside missing) | 0 score 0-7 |
| RNA1{[moe](T)[sp].[moe]([m5C])p.[moe](T)p.[moe](A)p.[moe](T)p.d(G)[sp].d(T)[sp].d(T)[sp].d(T)[sp].d(T)[sp].d([m5C])[sp].d([m5C])[sp].d(A)[sp].d(G)[sp].[moe](T)[sp].[moe](G)p.[moe]([m5C])p.[moe]([m5C])}$$$$ (last 3' nucleoside missing) | 0 score 0-7 |
| RNA1{[moe](T)[sp].[moe]([m5C])p.[moe](T)p.[moe](A)p.[moe](T)p.d(G)[sp].d(T)[sp].d(T)[sp].d(T)[sp].d(T)[sp].d([m5C])[sp].d([m5C])[sp].d(A)[sp].d(G)[sp].[moe](T)p.[moe](G)p.[moe]([m5C])[sp].[moe]([m5C])}$$$$ (last 3' nucleoside missing) | 0 score 0-7 |
| RNA1{[moe](T)[sp].[moe]([m5C])p.[moe](T)p.[moe](A)p.d(T)[sp].d(G)[sp].d(T)[sp].d(T)[sp].d(T)[sp].d(T)[sp].d([m5C])[sp].d([m5C])[sp].d(A)[sp].d(G)[sp].[moe](T)p.[moe](G)p.[moe]([m5C])p.[moe]([m5C])[sp].[moe]([m5C])}$$$$ (last 3' nucleoside missing) | 1 score 0-7 |
| RNA1{[moe](T)[sp].[moe]([m5C])p.[moe](T)p.[moe](G)p.[moe](A)[sp].d(G)[sp].d(A)[sp].d(T)[sp].d(T)[sp].d(T)[sp].d(G)[sp].d(T)[sp].d(T)[sp].d(T)[sp].d(T)[sp].[moe](A)p.[moe](G)p.[moe]([m5C])[sp].[moe]([m5C])}$$$$ (last 3' nucleoside missing) | 3 score 0-7 |
| RNA1{[moe](T)[sp].[moe]([m5C])p.[moe](T)p.[moe](T)p.[moe](A)[sp].d(G)[sp].d(A)[sp].d(T)[sp].d(T)[sp].d(T)[sp].d(T)[sp].d(T)[sp].d(G)[sp].d(G)[sp].d(A)[sp].[moe]([m5C])p.[moe](G)p.[moe](G)[sp].[moe](G)}$$$$ (last 3' nucleoside missing) | 4.5 score 0-7 |
| RNA1{[moe](T)[sp].[moe]([m5C])p.[moe](T)p.[moe](T)p.[moe](T)[sp].d(T)[sp].d([m5C])[sp].d(T)[sp].d(T)[sp].d(T)[sp].d(G)[sp].d([m5C])[sp].d(A)[sp].d([m5C])[sp].d(A)[sp].[moe]([m5C])p.[moe](T)p.[moe](G)[sp].[moe](A)}$$$$ (last 3' nucleoside missing) | 3 score 0-7 |
| RNA1{[moe](T)[sp].[moe]([m5C])p.[moe](T)p.[moe]([m5C])p.[moe](A)[sp].d(G)[sp].d(G)[sp].d(T)[sp].d([m5C])[sp].d(T)[sp].d(A)[sp].d([m5C])[sp].d(T)[sp].d([m5C])[sp].d(T)[sp].[moe](A)p.[moe](T)p.[moe](G)[sp].[moe](T)}$$$$ (last 3' nucleoside missing) | 1.25 score 0-7 |
| RNA1{[moe](T)[sp].[moe]([m5C])p.[moe](T)p.[moe]([m5C])p.[moe]([m5C])[sp].d(T)[sp].d(T)[sp].d(G)[sp].d(A)[sp].d(A)[sp].d(T)[sp].d(T)[sp].d(T)[sp].d([m5C])[sp].d(T)[sp].[moe](T)p.[moe](T)p.[moe]([m5C])[sp].[moe](A)}$$$$ (last 3' nucleoside missing) | 0 score 0-7 |
| RNA1{[moe](T)[sp].[moe]([m5C])p.[moe]([m5C])p.[moe](A)p.[moe](T)[sp].d(T)[sp].d(T)[sp].d(T)[sp].d([m5C])[sp].d(T)[sp].d(G)[sp].d(T)[sp].d(G)[sp].d([m5C])[sp].d(T)[sp].[moe](T)p.[moe](T)p.[moe](T)[sp].[moe]([m5C])}$$$$ (last 3' nucleoside missing) | 3.75 score 0-7 |
| RNA1{[moe]([m5C])[sp].[moe](A)p.[moe](A)p.[moe](G)p.[moe]([m5C])[sp].d(A)[sp].d(G)[sp].d(T)[sp].d(T)[sp].d([m5C])[sp].d(T)[sp].d(T)[sp].d(T)[sp].d(T)[sp].d([m5C])[sp].[moe](T)p.[moe](T)p.[moe](T)[sp].[moe](G)}$$$$ (last 3' nucleoside missing) | 2.25 score 0-7 |
| RNA1{[moe]([m5C])[sp].[moe](A)p.[moe](A)p.[moe](T)p.[moe](T)[sp].d(G)[sp].d(T)[sp].d(T)[sp].d(T)[sp].d(T)[sp].d(T)[sp].d([m5C])[sp].d(T)[sp].d([m5C])[sp].d(T)[sp].[moe]([m5C])p.[moe](T)p.[moe]([m5C])[sp].[moe](T)}$$$$ (last 3' nucleoside missing) | 0 score 0-7 |
| RNA1{[moe]([m5C])[sp].[moe](A)p.[moe](G)p.[moe](G)p.[moe](G)[sp].d(A)[sp].d(A)[sp].d(T)[sp].d(A)[sp].d(A)[sp].d(T)[sp].d(T)[sp].d(T)[sp].d(T)[sp].d(A)[sp].[moe]([m5C])p.[moe](T)p.[moe](T)[sp].[moe](T)}$$$$ (last 3' nucleoside missing) | 0 score 0-7 |
| RNA1{[moe]([m5C])[sp].[moe](A)p.[moe](G)p.[moe](T)p.[moe](G)[sp].d(T)[sp].d(T)[sp].d([m5C])[sp].d([m5C])[sp].d(A)[sp].d(T)[sp].d([m5C])[sp].d([m5C])[sp].d(T)[sp].d([m5C])[sp].[moe]([m5C])p.[moe](A)p.[moe](G)[sp].[moe](G)}$$$$ (last 3' nucleoside missing) | 1 score 0-7 |
| RNA1{[moe]([m5C])[sp].[moe](A)p.[moe](G)p.[moe](T)p.[moe](T)[sp].d(T)[sp].d(T)[sp].d(T)[sp].d([m5C])[sp].d([m5C])[sp].d([m5C])[sp].d([m5C])[sp].d(A)[sp].[moe]([m5C])p.[moe](A)p.[moe](T)[sp].[moe](A)}$$$$ (last 3' nucleoside missing) | 0 score 0-7 |
| RNA1{[moe]([m5C])[sp].[moe](A)p.[moe](T)p.[moe](T)p.[moe](T)[sp].d(G)[sp].d(A)[sp].d(T)[sp].d(T)[sp].d(T)[sp].d([m5C])[sp].d(A)[sp].d(A)[sp].d(G)[sp].d(T)[sp].[moe]([m5C])p.[moe]([m5C])p.[moe]([m5C])[sp].[moe](A)}$$$$ (last 3' nucleoside missing) | 3 score 0-7 |
| RNA1{[moe]([m5C])[sp].[moe](A)p.[moe]([m5C])p.[moe](A)p.[moe]([m5C])p.d(T)[sp].d(G)[sp].d(A)[sp].d([m5C])[sp].d([m5C])[sp].d(A)[sp].d(T)[sp].d(T)[sp].d(T)[sp].[moe](T)p.[moe](T)p.[moe](T)[sp].[moe](A)}$$$$ (last 3' nucleoside missing) | 0 score 0-7 |
| RNA1{[moe]([m5C])[sp].[moe](G)[sp].[moe](T)p.[moe]([m5C])p.[moe]([m5C])p.[moe](A)p.[moe](T)p.d(T)[sp].d(T)[sp].d(T)[sp].d([m5C])[sp].d(T)[sp].d(G)[sp].d(T)[sp].d(G)[sp].d([m5C])[sp].d(T)[sp].[moe](T)p.[moe](T)}$$$$ (last 3' nucleoside missing) | 5.5 score 0-7 |
| RNA1{[moe]([m5C])[sp].[moe](G)p.[moe](G)p.[moe](G)p.[moe](T)[sp].d(T)[sp].d(T)[sp].d(T)[sp].d([m5C])[sp].d(T)[sp].d(T)[sp].d(A)[sp].d(A)[sp].d(A)[sp].d(A)[sp].[moe](T)p.[moe](G)p.[moe](G)[sp].[moe](A)}$$$$ (last 3' nucleoside missing) | 2 score 0-7 |
| RNA1{[moe]([m5C])[sp].[moe](G)p.[moe](T)p.[moe](T)p.[moe](G)[sp].d(T)[sp].d(T)[sp].d(G)[sp].d(A)[sp].d(T)[sp].d(T)[sp].d(T)[sp].d(T)[sp].d(T)[sp].d([m5C])[sp].[moe]([m5C])p.[moe](A)p.[moe](G)[sp].[moe](A)}$$$$ (last 3' nucleoside missing) | 1.75 score 0-7 |
